Reference: PubChem BioAssay (NCI)
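A five-concentration, 48-hour dose response in 96-well plates underlies each endpoint, interpolated linearly between surrounding concentrations. TGI: concentration producing complete growth inhibition.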

Key:
Assay in all cases: DTP human tumour cell line panel, 48 h
A549 NSCLC = test system: A549 NSCLC
DMS 273 small cell lung = test system: DMS 273 small cell lung
EKVX NSCLC = test system: EKVX NSCLC
HCT-116 colon = test system: HCT-116 colon
HOP-92 NSCLC = test system: HOP-92 NSCLC
HT29 colon = test system: HT29 colon
IGROV1 ovarian = test system: IGROV1 ovarian
LOX IMVI melanoma = test system: LOX IMVI melanoma
MOLT-4 leukemia = test system: MOLT-4 leukemia
NCI-H23 lung = test system: NCI-H23 lung
NCI-H460 lung = test system: NCI-H460 lung
SF-268 CNS = test system: SF-268 CNS
SR leukemia = test system: SR leukemia
TK-10 renal = test system: TK-10 renal
OVCAR-8 ovarian = test system: OVCAR-8 ovarian
UACC-257 melanoma = test system: UACC-257 melanoma
UACC-62 melanoma = test system: UACC-62 melanoma
HS 578T breast = test system: HS 578T breast
NCI/ADR-RES ovarian = test system: NCI/ADR-RES ovarian
T-47D breast = test system: T-47D breast

| SMILES | TGI (A549 NSCLC) | TGI (DMS 273 small cell lung) | TGI (EKVX NSCLC) | TGI (HCT-116 colon) | TGI (HOP-92 NSCLC) | TGI (HT29 colon) | TGI (IGROV1 ovarian) | TGI (LOX IMVI melanoma) | TGI (MOLT-4 leukemia) | TGI (NCI-H23 lung) | TGI (NCI-H460 lung) | TGI (SF-268 CNS) | TGI (SR leukemia) | TGI (TK-10 renal) | TGI (OVCAR-8 ovarian) | TGI (UACC-257 melanoma) | TGI (UACC-62 melanoma) | TGI (HS 578T breast) | TGI (NCI/ADR-RES ovarian) | TGI (T-47D breast) |
| --- | --- | --- | --- | --- | --- | --- | --- | --- | --- | --- | --- | --- | --- | --- | --- | --- | --- | --- | --- | --- |
| CC(C)(CCl)NC(=O)c1cccc(C(=O)NC(C)(C)CCl)n1 | > 100 µM | > 100 µM | > 100 µM | > 100 µM | > 100 µM | > 100 µM | > 100 µM | > 100 µM | > 100 µM | > 100 µM | > 100 µM | > 100 µM | > 100 µM | > 100 µM |  |  |  |  |  |  |
| CN1N=C2c3ccccc3OC(c3ccccc3)[C@H]2C1c1ccccc1 (some centres not stated) | > 100 µM | > 100 µM | > 100 µM | > 100 µM | > 100 µM | > 100 µM | > 100 µM | > 100 µM | > 100 µM | > 100 µM | > 100 µM | > 100 µM | > 100 µM | > 100 µM | > 100 µM | > 100 µM | > 100 µM |  |  |  |
| O=c1[nH]nc(CNc2ccc(Cl)cc2Cl)c2ccccc12 | 43.2 µM | 72.9 µM | 85.7 µM | 66.3 µM | 80.1 µM | > 100 µM | 58.7 µM | > 100 µM | > 100 µM |  | 84.5 µM | 44.7 µM | > 100 µM | 45.7 µM |  | 92.7 µM | > 100 µM |  |  |  |
| C=CCCCN1CCCCC1=S | > 100 µM | > 100 µM | > 100 µM | > 100 µM | > 100 µM | > 100 µM | > 100 µM | > 100 µM | > 100 µM | > 100 µM | > 100 µM |  | > 100 µM | > 100 µM | > 100 µM | > 100 µM | > 100 µM |  |  |  |
| C#CC(C)(C)OCCCCOc1cc(O)c2c(=O)c3ccccc3n(C)c2c1 | > 100 µM | > 100 µM | > 100 µM | > 100 µM | > 100 µM | 45.7 µM | > 100 µM | > 100 µM |  | > 100 µM | > 100 µM | > 100 µM | > 100 µM | > 100 µM | > 100 µM | > 100 µM | > 100 µM |  |  |  |
| O=C1NC(=S)NC(=O)C1=CC1CC1 | > 100 µM | > 100 µM | > 100 µM | > 100 µM | > 100 µM | > 100 µM | > 100 µM | > 100 µM | > 100 µM | > 100 µM | > 100 µM | > 100 µM | > 100 µM | > 100 µM | > 100 µM | > 100 µM | > 100 µM |  |  |  |
| CN1c2c(nc(N)[nH]c2=O)NCC1CCNc1ccc(C(=O)NC(CCC(=O)O)C(=O)O)cc1 (configuration not stated) | 2620 µM | 1560 µM | 2720 µM | 1390 µM | 2900 µM | 1310 µM | 2470 µM | 783 µM | 2650 µM | 3630 µM | 1570 µM | 2710 µM | 2530 µM | 2500 µM | 2640 µM | 2360 µM | 1650 µM | 5910 µM | 3810 µM | 4260 µM |
| CC12C3CC4C5CC(C(C53)[C@@H]1NCc1ccccc1)C42 (some centres not stated) | > 100 µM | > 100 µM | > 100 µM | > 100 µM | > 100 µM | > 100 µM | > 100 µM | > 100 µM | > 100 µM | > 100 µM | > 100 µM | > 100 µM | > 100 µM | > 100 µM | > 100 µM | > 100 µM | > 100 µM |  |  |  |
